Results on 19 compounds are retold here after the supplement of paper PMC8967900.

Molecules are shown by their SMILES.
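Also: ALL cell lines in 384-well plates, five doses spanning 10,000-fold, each plate scaled between vehicle and 100 µmol/L benzalkonium chloride controls, sDSS an adapted area-under-curve metric.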

One assay deals with PF-382. The assay can be described thus: selective drug sensitivity score (sDSS, relative to normal bone marrow) (sDSS (score)); higher = more potent and effective on the cell line relative to normal bone marrow cells. The note with it: 72 h.
`C[C@@H]1CN(CC(=O)Nc2ccc3c(c2)Cc2cccc(-c4cc(=O)cc(N5CCOCC5)o4)c2S3)C[C@H](C)O1` (top concentration 25000 nM): the “selective drug sensitivity score” value was found to be 0.82.
On the same count and under the same terms, the value for `COc1ccc2[nH]cc(/C=C3\C(=O)Nc4ccc(NC(=O)CCN5CCCCC5)cc43)c2c1` (top concentration 50000 nM) was 1.18.
On the same count and under the same terms, as for `Cc1nn(C)c(COc2ccc(N3CCN(S(=O)(=O)N(C)C)CC3)cc2)c1-c1cccc2c(CCCOc3cccc4ccccc34)c(C(=O)O)n(CCN3CCOCC3)c12` (top concentration 50000 nM), the figure is 3.16; as for `C[C@H](Nc1ncnc2[nH]cnc12)c1cc2ccc(F)cc2nc1-c1ccccn1` [AMG319] (top concentration 1000 nM), -1.42.
On the same count and under the same terms, as for `C=CCn1c(=O)c2cnc(Nc3ccc(N4CCN(C)CC4)cc3)nc2n1-c1cccc(C(C)(C)O)n1` [AZD1775] (top concentration 10000 nM), the figure is 12.4; as for `NC(=O)Nc1cc(-c2cccc(F)c2)sc1C(=O)N[C@H]1CCCNC1` [AZD7762] (top concentration 1000 nM), -0.5; as for `Cc1cc([C@@H](C)Nc2ccccc2C(=O)O)c2nc(N3CCOCC3)cc(=O)n2c1` [AZD-6482] (top concentration 2500 nM), 2.62.
For the compound `CN(C)Cc1c(C(=O)NCCOc2ccc(C(=O)NO)cc2)oc2ccccc12` [Abexinostat] (top concentration 10000 nM), the “selective drug sensitivity score” value came out at 2.86.
On the same count and under the same terms, as for `S=C(NCc1ccc2c(c1)OCO2)N1CCN(c2ncnc3c2oc2ccccc23)CC1` [Amuvatinib] (top concentration 10000 nM), the figure is 5.06.
Same read-out and setting: as for `CC(=O)OC[C@H]1O[C@@H]([S-])[C@H](OC(C)=O)[C@@H](OC(C)=O)[C@@H]1OC(C)=O.CCP(CC)CC.[Au+]` [Auranofin] (top concentration 2500 nM), the figure is -1.36.

The test system of the next assay is RCH-ACV. The description is as above. The following applies: 72 h.
As to `Cc1c(-c2ccc(N3CCc4cccc(C(=O)Nc5nc6ccccc6s5)c4C3)nc2C(=O)O)cnn1CC12CC3CC(CC(C3)C1)C2` (top concentration 1000 nM), the “selective drug sensitivity score” value is -1.76.
Still for that read-out and setting: as for `O=C(NOC[C@H](O)CO)c1ccc(F)c(F)c1Nc1ccc(I)cc1F` (top concentration 1000 nM), the figure is -1.96.
Same read-out and setting: the value for `CO[C@@H](C)Cn1c(=O)n(C)c2cnc3ccc(-c4cncc(C(C)(C)O)c4)cc3c21` (top concentration 2500 nM) was 17.6; that for `Cc1cccc(CC(=O)N2CCc3c2ccc(-c2cn(C)c4ncnc(N)c24)c3F)n1` (top concentration 2500 nM) was 7.02; that for `CNC(=O)c1ccccc1Nc1nc(Nc2ccc3c(c2OC)CCC[C@H](N2CCN(CCO)CC2)C3)ncc1Cl` (top concentration 5000 nM) was 0.46.
Still for that read-out and setting: as for `COc1cc2ncnc(Oc3cccc(NC(=O)Nc4cc(C(C)(C)C(F)(F)F)on4)c3)c2cc1OC` (top concentration 10000 nM), the figure is 13.9.
On to `C[C@@H](Oc1cc(-n2cnc3ccc(CN4CCN(C)CC4)cc32)sc1C(N)=O)c1ccccc1C(F)(F)F` (top concentration 10000 nM), for which the “selective drug sensitivity score” value is 20.9.
As for `Nc1nccc(-c2c(-c3ccc(F)cc3)ncn2C2CCCCC2)n1` (top concentration 10000 nM), the “selective drug sensitivity score” value worked out at 13.5.
Consider `O=C(O)c1ccc(-c2c[nH]c3ncc(-c4ccccc4)cc23)cc1C1CCCC1` (top concentration 10000 nM), for which the “selective drug sensitivity score” value amounted to 5.76.
The same measure, in the same setting: the value for `C[C@@H]1CN(CC(=O)Nc2ccc3c(c2)Cc2cccc(-c4cc(=O)cc(N5CCOCC5)o4)c2S3)C[C@H](C)O1` (top concentration 25000 nM) was 8.12.
On the same count and under the same terms, as for `COc1ccc2[nH]cc(/C=C3\C(=O)Nc4ccc(NC(=O)CCN5CCCCC5)cc43)c2c1` (top concentration 50000 nM), the figure is 1.08.
Take `Cc1nn(C)c(COc2ccc(N3CCN(S(=O)(=O)N(C)C)CC3)cc2)c1-c1cccc2c(CCCOc3cccc4ccccc34)c(C(=O)O)n(CCN3CCOCC3)c12` (top concentration 50000 nM): the “selective drug sensitivity score” value came to 4.66.
As to `C[C@H](Nc1ncnc2[nH]cnc12)c1cc2ccc(F)cc2nc1-c1ccccn1` [AMG319] (top concentration 1000 nM), the “selective drug sensitivity score” value turned out to be 19.3.
The same measure, in the same setting: as for `C=CCn1c(=O)c2cnc(Nc3ccc(N4CCN(C)CC4)cc3)nc2n1-c1cccc(C(C)(C)O)n1` [AZD1775] (top concentration 10000 nM), the figure is 17.2; as for `NC(=O)Nc1cc(-c2cccc(F)c2)sc1C(=O)N[C@H]1CCCNC1` [AZD7762] (top concentration 1000 nM), 7.9; as for `Cc1cc([C@@H](C)Nc2ccccc2C(=O)O)c2nc(N3CCOCC3)cc(=O)n2c1` [AZD-6482] (top concentration 2500 nM), 17.6.
Same read-out and setting: the value for `CN(C)Cc1c(C(=O)NCCOc2ccc(C(=O)NO)cc2)oc2ccccc12` [Abexinostat] (top concentration 10000 nM) was 10.6.
As to `S=C(NCc1ccc2c(c1)OCO2)N1CCN(c2ncnc3c2oc2ccccc23)CC1` [Amuvatinib] (top concentration 10000 nM), the “selective drug sensitivity score” value amounted to 9.26.
On to `CC(=O)OC[C@H]1O[C@@H]([S-])[C@H](OC(C)=O)[C@@H](OC(C)=O)[C@@H]1OC(C)=O.CCP(CC)CC.[Au+]` [Auranofin] (top concentration 2500 nM), for which the “selective drug sensitivity score” value stood at 3.84.

The subject of a further assay is TMD5. Described as above. The note with it: 72 h.
As to `Cc1c(-c2ccc(N3CCc4cccc(C(=O)Nc5nc6ccccc6s5)c4C3)nc2C(=O)O)cnn1CC12CC3CC(CC(C3)C1)C2` (top concentration 1000 nM), the “selective drug sensitivity score” value is -2.26.
The same measure, in the same setting: the value for `O=C(NOC[C@H](O)CO)c1ccc(F)c(F)c1Nc1ccc(I)cc1F` (top concentration 1000 nM) was 2.94.
Same read-out and setting: the value for `CO[C@@H](C)Cn1c(=O)n(C)c2cnc3ccc(-c4cncc(C(C)(C)O)c4)cc3c21` (top concentration 2500 nM) was -1.22; that for `Cc1cccc(CC(=O)N2CCc3c2ccc(-c2cn(C)c4ncnc(N)c24)c3F)n1` (top concentration 2500 nM) was -0.68.
On the same count and under the same terms, as for `CNC(=O)c1ccccc1Nc1nc(Nc2ccc3c(c2OC)CCC[C@H](N2CCN(CCO)CC2)C3)ncc1Cl` (top concentration 5000 nM), the figure is -2.74.
Regarding `COc1cc2ncnc(Oc3cccc(NC(=O)Nc4cc(C(C)(C)C(F)(F)F)on4)c3)c2cc1OC` (top concentration 10000 nM), the “selective drug sensitivity score” value was 15.7.
Same read-out and setting: as for `C[C@@H](Oc1cc(-n2cnc3ccc(CN4CCN(C)CC4)cc32)sc1C(N)=O)c1ccccc1C(F)(F)F` (top concentration 10000 nM), the figure is 11.8.
Consider `Nc1nccc(-c2c(-c3ccc(F)cc3)ncn2C2CCCCC2)n1` (top concentration 10000 nM), for which the “selective drug sensitivity score” value was 1.5.
On the same count and under the same terms, the value for `O=C(O)c1ccc(-c2c[nH]c3ncc(-c4ccccc4)cc23)cc1C1CCCC1` (top concentration 10000 nM) was 1.66; that for `C[C@@H]1CN(CC(=O)Nc2ccc3c(c2)Cc2cccc(-c4cc(=O)cc(N5CCOCC5)o4)c2S3)C[C@H](C)O1` (top concentration 25000 nM) was -2.18; that for `COc1ccc2[nH]cc(/C=C3\C(=O)Nc4ccc(NC(=O)CCN5CCCCC5)cc43)c2c1` (top concentration 50000 nM) was 0.28.
Same read-out and setting: as for `Cc1nn(C)c(COc2ccc(N3CCN(S(=O)(=O)N(C)C)CC3)cc2)c1-c1cccc2c(CCCOc3cccc4ccccc34)c(C(=O)O)n(CCN3CCOCC3)c12` (top concentration 50000 nM), the figure is 4.26; as for `C[C@H](Nc1ncnc2[nH]cnc12)c1cc2ccc(F)cc2nc1-c1ccccn1` [AMG319] (top concentration 1000 nM), -1.42; as for `C=CCn1c(=O)c2cnc(Nc3ccc(N4CCN(C)CC4)cc3)nc2n1-c1cccc(C(C)(C)O)n1` [AZD1775] (top concentration 10000 nM), 4.94.
As to `NC(=O)Nc1cc(-c2cccc(F)c2)sc1C(=O)N[C@H]1CCCNC1` [AZD7762] (top concentration 1000 nM), the “selective drug sensitivity score” value was -1.1.
Same read-out and setting: as for `Cc1cc([C@@H](C)Nc2ccccc2C(=O)O)c2nc(N3CCOCC3)cc(=O)n2c1` [AZD-6482] (top concentration 2500 nM), the figure is -0.28; as for `CN(C)Cc1c(C(=O)NCCOc2ccc(C(=O)NO)cc2)oc2ccccc12` [Abexinostat] (top concentration 10000 nM), 5.36.
For `S=C(NCc1ccc2c(c1)OCO2)N1CCN(c2ncnc3c2oc2ccccc23)CC1` [Amuvatinib] (top concentration 10000 nM), the “selective drug sensitivity score” value stood at 4.16.
As to `CC(=O)OC[C@H]1O[C@@H]([S-])[C@H](OC(C)=O)[C@@H](OC(C)=O)[C@@H]1OC(C)=O.CCP(CC)CC.[Au+]` [Auranofin] (top concentration 2500 nM), the “selective drug sensitivity score” value came to 3.84.
